Data reported in the NIST ThermoML archive (doi:10.1016/j.fluid.2012.12.036).
± gives the expanded uncertainty stated by the source.

Conditions: Crystal; for vapor or sublimation pressure: Calculated from knudsen effusion weight loss; for Normal melting temperature: visual observation

Brc1c2ccccc2cc2ccccc12 [9-bromoanthracene]
Conditions	Normal melting temperature [°C]	vapor or sublimation pressure [kPa]
–	101.00 ± 0.41	–
314.8 K	–	5.1e-06 ± 5.9e-07
319.8 K	–	1.06e-05 ± 1.2e-06
324.8 K	–	1.71e-05 ± 1.9e-06
329.8 K	–	3.26e-05 ± 3.5e-06
334.9 K	–	5.32e-05 ± 5.8e-06
339.9 K	–	9.3e-05 ± 1e-05
345 K	–	0.000158 ± 1.7e-05
350 K	–	0.000261 ± 2.8e-05
355 K	–	0.000418 ± 4.5e-05

Brc1ccc2cc3ccccc3cc2c1 [anthracene, 2-bromo-]
Conditions	Normal melting temperature [°C]	vapor or sublimation pressure [kPa]
–	220.70 ± 0.41	–
334.8 K	–	5.41e-06 ± 6e-07
339.8 K	–	9.21e-06 ± 1e-06
344.9 K	–	1.56e-05 ± 1.7e-06
350 K	–	2.61e-05 ± 2.8e-06
355 K	–	4.15e-05 ± 4.5e-06
360.1 K	–	7.18e-05 ± 7.8e-06
365.2 K	–	0.000114 ± 1.2e-05
370.4 K	–	0.000184 ± 2e-05
375.3 K	–	0.000287 ± 3.1e-05
380.4 K	–	0.000437 ± 4.7e-05
385.4 K	–	0.000652 ± 7e-05
390.4 K	–	0.000887 ± 9.5e-05

c1ccc2cc3ccccc3cc2c1 [anthracene]
Conditions	Normal melting temperature [°C]	vapor or sublimation pressure [kPa]
–	216.90 ± 0.41	–
322.9 K	–	1.82e-05 ± 2e-06
328 K	–	2.97e-05 ± 3.2e-06
333 K	–	5.58e-05 ± 6e-06
338.1 K	–	8.91e-05 ± 9.6e-06
343.1 K	–	0.000146 ± 1.6e-05
348.2 K	–	0.000233 ± 2.5e-05
